Experimental data from ChEMBL document CHEMBL5357007, “Withanolides from Physalis angulata var. villosa and the Relative Configurational Revision of Some Known Analogs” (J Nat Prod, 2024).

Columns and labels:
Assay type in all cases: functional, cell-based
MDA-MB-231 = test: Cytotoxicity against human MDA-MB-231 cells assessed as inhibition of cell growth incubated for 72 hrs by CCK-8 assay; details: MDA-MB-231, 72 h
A549 = test: Cytotoxicity against human A549 cells assessed as inhibition of cell growth incubated for 72 hrs by CCK-8 assay; details: A549, 72 h
HCT-116 = test: Cytotoxicity against human HCT-116 cells assessed as inhibition of cell growth incubated for 72 hrs by CCK-8 assay; details: HCT-116, 72 h

| Structure (SMILES) | IC50 (MDA-MB-231) | IC50 (A549) | IC50 (HCT-116) |
| --- | --- | --- | --- |
| CC(=O)O[C@H]1C=C([C@H](C)[C@H]2CC(C)=C(C)C(=O)O2)[C@@]2(C)CC[C@H]3[C@@H](C[C@H]4O[C@]45C[C@@H](O)CC(=O)[C@]35C)[C@@]12O | > 10 µM | > 10 µM | > 10 µM |
| CCO[C@H]1CC(=O)[C@]2(C)[C@H]3CC[C@]4(C)C([C@H](C)[C@H]5CC(C)=C(C)C(=O)O5)=C[C@H](OC(C)=O)[C@]4(O)[C@@H]3C[C@H]3O[C@]32[C@H]1O | > 10 µM | > 10 µM | > 10 µM |
| CC(=O)O[C@H]1C[C@H]([C@H](C)[C@H]2CC(C)=C(C)C(=O)O2)[C@@]2(C)CCC3[C@@H](C[C@@H](O)C4=CC=CC(=O)[C@@]43C)[C@@]12O (stereo not given in full) | > 10 µM | > 10 µM | > 10 µM |
| CC(=O)O[C@H]1[C@H](O)[C@](O)([C@H](C)[C@H]2CC(C)=C(C)C(=O)O2)[C@@]2(C)CC[C@H]3[C@@H](C[C@H]4O[C@]45[C@@H](O)C=CC(=O)[C@]35C)[C@@]12O | 9.1 µM | > 10 µM | 7.2 µM |
| CC(=O)O[C@H]1[C@@H]2O[C@]2([C@@H](C)[C@H]2CC(C)=C(C)C(=O)O2)[C@@]2(C)CC[C@H]3[C@@H](C[C@H](Cl)[C@]4(O)CC=CC(=O)[C@]34C)[C@@]12O | > 10 µM | > 10 µM | > 10 µM |
| CCO[C@H]1CC(=O)[C@]2(C)[C@H]3CC[C@]4(C)[C@@H]([C@H](C)[C@H]5CC(C)=C(C)C(=O)O5)C[C@H](O)[C@]4(O)[C@@H]3C[C@H]3O[C@]32[C@H]1O | > 10 µM | > 10 µM | > 10 µM |
| CC(=O)O[C@H]1C=C([C@H](C)[C@H]2CC(C)=C(C)C(=O)O2)[C@@]2(C)CC[C@H]3[C@@H](CC(=O)C4CC=CC(=O)[C@@]43C)[C@@]12O (stereo not given in full) | > 10 µM | > 10 µM | 9.2 µM |
| CC(=O)O[C@H]1C[C@H]([C@H](C)[C@@H]2OC(=O)C(C)=C(C)[C@@H]2O)[C@@]2(C)CC[C@H]3[C@@H](C[C@H]4O[C@]45[C@@H](O)C=CC(=O)[C@]35C)[C@@]12O | > 10 µM | 9.7 µM | 8.5 µM |
| CCO[C@H]1CC(=O)[C@]2(C)[C@H]3CC[C@@]4(C)[C@](O)([C@@H](OC(C)=O)C[C@@]4(O)[C@H](C)[C@H]4CC(C)=C(C)C(=O)O4)[C@@H]3C[C@H]3O[C@]32C1 | > 10 µM | > 10 µM | > 10 µM |
| CCO[C@H]1CC(=O)[C@]2(C)[C@H]3CC[C@@]4(C)[C@@](O)([C@@H]3C[C@H]3O[C@]32[C@H]1O)[C@@H](OC(C)=O)[C@@H]1O[C@@]14[C@H](C)[C@H]1CC(C)=C(C)C(=O)O1 | > 10 µM | > 10 µM | > 10 µM |
| CC(=O)O[C@H]1C=C([C@H](C)[C@H]2CC(C)=C(C)C(=O)O2)[C@@]2(C)[C@H](O)C[C@H]3[C@@H](C[C@@H](O)[C@@]4(O)CC=CC(=O)[C@]34C)[C@@]12O | > 10 µM | > 10 µM | > 10 µM |
| CO[C@H]1C=C([C@H](C)[C@H]2CC(C)=C(C)C(=O)O2)[C@@]2(C)CC[C@H]3[C@@H](C[C@@H](O)[C@@]4(Cl)CC=CC(=O)[C@]34C)[C@@]12O | 9.4 µM | > 10 µM | 8.8 µM |
| CCO[C@H]1CC(=O)[C@]2(C)[C@H]3CC[C@]4(C)C([C@H](C)[C@H]5CC(C)=C(C)C(=O)O5)=C[C@H](OC(C)=O)[C@]4(O)[C@@H]3C[C@H]3O[C@]32C1 | > 10 µM | > 10 µM | > 10 µM |
| CC(=O)O[C@H]1C[C@](O)([C@H](C)[C@H]2CC(C)=C(C)C(=O)O2)[C@@]2(C)CC[C@H]3[C@@H](C[C@H]4O[C@]45[C@@H](O)C=CC(=O)[C@]35C)[C@@]12O | 4.5 µM | 5.9 µM | 1.8 µM |
| CC1=C(C)C(=O)O[C@@H]([C@@H](C)C2=C[C@H](O)[C@]3(O)[C@@H]4C[C@H]5O[C@]56[C@@H](O)CCC(=O)[C@]6(C)[C@H]4CC[C@]23C)C1 | > 10 µM | > 10 µM | > 10 µM |
